Laboratory results as given in patent US20080275058A1, “N-Substituted-1H-Quinoline-2,4-Diones, Preparation Method Thereof, And Pharmaceutical Composition Containing The Same” (KOREA RESEARCH INSTITUTE OF CHEMICAL TECHNOLOGY, priority 2005, published 2008).

Experiments:
[1] = target: T1, hD4.2 receptor (Homo sapiens, UniProt P21917, DEL265-296); assay: Radioligand binding, dopamine D4 ([3H]YM-09151-2); details: Table 4; [3H]YM-09151-2 0.06 nM; read-out: Binding affinity, IC50 (nM) D4
T1 construct: purchased BioSignal Packard Inc., Montreal, Canada
T1 sequence (P21917 with tags, fused parts or gaps DEL265-296): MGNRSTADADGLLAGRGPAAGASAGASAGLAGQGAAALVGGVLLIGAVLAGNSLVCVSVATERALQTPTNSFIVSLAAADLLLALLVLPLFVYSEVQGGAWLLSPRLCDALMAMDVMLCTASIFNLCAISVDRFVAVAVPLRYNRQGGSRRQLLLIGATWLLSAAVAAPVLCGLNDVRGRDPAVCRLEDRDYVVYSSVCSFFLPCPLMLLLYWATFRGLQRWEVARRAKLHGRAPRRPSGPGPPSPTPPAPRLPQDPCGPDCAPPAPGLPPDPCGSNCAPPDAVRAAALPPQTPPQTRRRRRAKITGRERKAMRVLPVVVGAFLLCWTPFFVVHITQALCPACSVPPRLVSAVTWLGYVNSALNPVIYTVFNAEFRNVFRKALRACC
In short: (§1)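 Membrane competition binding with [3H]spiperone (1 nM) for hD2L and hD3, or [3H]YM-09151-2 (0.06 nM) for hD4.2, each in receptor-specific Tris-HCl pH 7.4 buffer containing Mg2+/EDTA (D3 and D4 also with K+, Ca2+; D3 with 120 mM NaCl). Compounds were tested at 7-8 concentrations in duplicate, and IC50 was derived by nonlinear regression across three assays.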

[2] = target: D1 (Homo sapiens, UniProt P21728); assay: Radioligand binding, dopamine D1; details: Table 4; read-out: Binding affinity, IC50 (nM) D1
Chain of D1 (P21728 whole entry): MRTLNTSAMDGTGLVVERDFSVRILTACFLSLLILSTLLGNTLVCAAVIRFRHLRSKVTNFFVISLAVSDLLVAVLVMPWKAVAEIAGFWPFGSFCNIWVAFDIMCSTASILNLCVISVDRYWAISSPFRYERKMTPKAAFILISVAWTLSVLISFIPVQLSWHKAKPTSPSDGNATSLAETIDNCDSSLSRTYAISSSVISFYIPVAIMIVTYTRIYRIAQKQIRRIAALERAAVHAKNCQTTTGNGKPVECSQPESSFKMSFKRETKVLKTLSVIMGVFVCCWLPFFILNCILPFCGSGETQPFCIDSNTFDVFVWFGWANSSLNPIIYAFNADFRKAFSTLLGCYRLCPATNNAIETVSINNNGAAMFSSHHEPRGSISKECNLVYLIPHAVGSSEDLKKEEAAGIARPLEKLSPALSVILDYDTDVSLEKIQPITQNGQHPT

[3] = target: T2, hD2L (Homo sapiens, UniProt P14416); assay: Radioligand binding, dopamine D2 ([3H]spiperone); details: Table 4; [3H]spiperone 1 nM; read-out: Binding affinity, IC50 (nM) D2
T2 construct: purchased BioSignal Packard Inc., Montreal, Canada
T2 sequence (P14416 whole entry): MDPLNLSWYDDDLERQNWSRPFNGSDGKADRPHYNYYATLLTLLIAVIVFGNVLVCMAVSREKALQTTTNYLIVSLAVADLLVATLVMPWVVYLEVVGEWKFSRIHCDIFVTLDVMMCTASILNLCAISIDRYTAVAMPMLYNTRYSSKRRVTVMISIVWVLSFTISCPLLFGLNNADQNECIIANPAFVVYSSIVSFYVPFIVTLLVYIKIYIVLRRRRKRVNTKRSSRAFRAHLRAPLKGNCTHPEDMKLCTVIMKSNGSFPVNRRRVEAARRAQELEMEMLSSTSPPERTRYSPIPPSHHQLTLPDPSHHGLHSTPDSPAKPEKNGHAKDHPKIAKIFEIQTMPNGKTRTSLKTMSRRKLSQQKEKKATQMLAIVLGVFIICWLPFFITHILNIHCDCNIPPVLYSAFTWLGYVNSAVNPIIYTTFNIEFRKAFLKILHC
In short: as §1

[4] = target: T3, 5-HT2c (Homo sapiens, UniProt P28335); assay: Radioligand binding, 5-HT2c ([3H]Mesulergine); details: Table 4; [3H]Mesulergine 1 nM; read-out: Binding affinity, IC50 (nM) 5-HT2c
T3 construct: purchased Euroscreen/BioSignal Packard Inc
T3 sequence (P28335 33-458): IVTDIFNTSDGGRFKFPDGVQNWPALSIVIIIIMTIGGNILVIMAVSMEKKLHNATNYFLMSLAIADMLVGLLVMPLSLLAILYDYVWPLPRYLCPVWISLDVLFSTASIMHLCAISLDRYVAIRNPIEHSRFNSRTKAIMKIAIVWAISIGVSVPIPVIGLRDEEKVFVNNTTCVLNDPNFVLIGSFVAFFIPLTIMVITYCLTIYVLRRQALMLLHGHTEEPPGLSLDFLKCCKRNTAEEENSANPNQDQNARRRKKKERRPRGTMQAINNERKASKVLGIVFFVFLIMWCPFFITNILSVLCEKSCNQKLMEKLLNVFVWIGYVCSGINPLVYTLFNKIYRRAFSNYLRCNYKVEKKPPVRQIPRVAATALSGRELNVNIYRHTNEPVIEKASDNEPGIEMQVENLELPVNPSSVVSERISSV

[5] = system: HeLa cells transfected with the human 5-HT6 receptor; assay: Cytotoxicity in HeLa cells transfected with the human 5-HT6 receptor; assay type: cell-based; details: at the concentrations tested

Row | Structure (SMILES) | IC50 [1] [nM] | IC50 [2] [nM] | IC50 [3] [nM] | IC50 [4] [nM] | cytotoxicity [5]
1 | COc1ccc(C2(C)C(=O)c3c(N4CCNCC4)cc(Cl)cc3N(Cc3ccccc3)C2=O)cc1 (racemic) [Example 13, 1-Benzyl-7-chloro-3-(4-methoxy-phenyl)-3-methyl-5-piperazin-1-yl-1H-quinoline-2,4-dione] | > 10000 | 3590 | > 10000 | 437 | 
2 | CC1(c2ccc(O)cc2)C(=O)c2c(N3CCNCC3)cc(Cl)cc2N(Cc2ccccc2)C1=O (racemic) [Example 14, 1-Benzyl-7-chloro-3-(4-hydroxy-phenyl)-3-methyl-5-piperazin-1-yl-1H-quinoline-2,4-dione] | > 10000 | 6820 | > 10000 | > 10000 | did not show any cytotoxicity
